The conditions of assay [1]: described in U.S. Pat. No. 6,787,566; cited from earlier work.
Assay [2] concerns Zucker diabetic fatty rats (ZDF, fa/fa). Put plainly: Metabolic data of ZDF rats treated with LR-90 or LR-102 (Example 2). The following applies: ZDF rats at 40 weeks of age, Mean ± SEM. The assay is classed as in vivo, rat. How it is done: The present Example presents the results of an investigation of the effects of LR-90, an inhibitor of AGE/ALE formation, in male Zucker diabetic fatty rats (ZDF, fa/fa) fed with Purina 5008 diet until 40 weeks of age, and their hetorozygous lean littermates (ZDF fa/+) as non-hyperglycemic controls. LR-90 at 50 mg/L of drinking water was given to a subgroup of ZDF rats after the rats developed spontaneous diabetes at 13 weeks of age. At 40 weeks of age, and before killing the animals, their weight was measured; HbA1c, plasma glucose, insulin, triglycerides, cholesterol, CRP and urinary albumin and creatinine concentrations were measured. After euthanizing all animals, organs such as the kidneys, eyeballs, liver, heart, aortae and pancreas were dissected and subjected to immunohistochemical staining, RT-PCR, Western blotting and microscopy.

Assay [3] has the same test system. The experiment in a line: Pancreatic islet immunohistochemistry and PAMS staining (Example 2). In kind it is in vivo, rat. To be noted: FIG. 8. An excerpt:
FIG. 7. Immunohistochemical analysis and quantification of islet cells. ZDF GM fa/fa rats and lean control rats were fed with high fat diet for 30 weeks and received either nothing or LR-90 or LR-102 in their drinking water. Pancreatic sections from various groups of animals were stained with anti-insulin antibody or anti-glucagon antibody. A. Representative images with the overlay of the insulin (green) and glucagon (red staining). […] B. Insulin-positive β-cell-to-glucagon-ratio was also measured from these images.
FIG. 8. Periodic acid methenamine silver (PAMS) staining of pancreatic tissues. Sections from cryopreserved pancreas of each group of animals on the study were stained with PAMS and examined under light microscopy.
LR-90 at 50 mg/L of drinking water was given to a subgroup of ZDF rats after the rats developed spontaneous diabetes at 13 weeks of age. At 40 weeks of age, and before killing the animals, their weight was measured; HbA1c, plasma glucose, insulin, triglycerides, cholesterol, CRP and urinary albumin and creatinine concentrations were measured. After euthanizing all animals, organs such as the kidneys, eyeballs, liver, heart, aortae and pancreas were dissected and subjected to immunohistochemical staining, RT-PCR, Western blotting and microscopy.

Molecules are shown by their SMILES.

Consider `CC(C)(Oc1ccc(N=Cc2ccc(C=Nc3ccc(OC(C)(C)C(=O)O)cc3)cc2)cc1)C(=O)O` [LR-102, 1,4-benzene-bis[4-methyleneaminophenoxyisobutyric acid]], for which the “breaking AGE-protein cross-links” value in assay [1] is “active”. This compound also displayed a Plasma glucose in assay [2] (drug in drinking water) of 29.8 ± 3.2 mmol/dL. Moreover, in assay [2], the Cholesterol stood at 290 ± 35 mg/dL; the HbA1c amounted to 2.80 ± 0.12%; the “Plasma CRP” value is 0.77 ± 0.05 mg/mL; the “Plasma insulin, ELISA” value is 0.68 ± 0.10 ng/mL. Moreover, in assay [2], the “Plasma insulin, RIA” value came to 0.65 ± 0.10 ng/mL; the Triglycerides was found to be 536 ± 63 mg/dL; the “Urinary Albumin” value came to 35.4 ± 15.8 mg/24 h. The “PAMS staining of pancreatic islets” value in assay [3] was “amelioration”.

Values taken from patent US8124655B2, “Use of LR-90 and LR-102 to overcome insulin resistance” (City of Hope, priority 2007, dated 2012).
